Experiment: recombinant barcode read abundance after kanamycin selection (control-corrected) (log10(CPM+1)); higher = more efficient recombination; sequences stand for … in AGTGCAGAGAAAATCGGCCAGTTTTCTCTGCCTGCAGTCCGCATGCCGT…AGATTTATGCAGCGGACTGCCTTTCTCCCAAAGTGATAAACCGGACAGTATCATGGACCGGTTTTCCCGGTAATCCGTATTTGCAAGGTTGGTTTCACT; site = the 11-nt target
How it was run: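 A vector carrying a T7-inducible recombinase and the last 73 bp of the bridge RNA received, by Gibson cloning, oligos encoding a promoter, target, barcode and the first 104 bridge RNA bases under J23119. The pooled constructs entered E. coli together with a donor plasmid by electroporation. Selection used chloramphenicol/ampicillin/kanamycin with 0.1 mM IPTG, with chloramphenicol/ampicillin LB agar as the control, each in two replicates. Recombination efficiency is the averaged, control-corrected counts-per-million of barcodes at recombinant junctions, reported as log10(CPM+1).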
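Note: IS621 recombinase and bridge RNA in Escherichia coli cells.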

Sequence | recombinant barcode read abundance (log10)
CCGCCCTCTTGGGTTCTAACCTGTTGCCT (site CGGCCCTCTAG) | 0.105
CCGCCCTCTTGGGTTCTAACCTGTTGCCT (site CTGCCCTCTAG) | 0.0291
CCGCCTCCTTGGGTTCTAACCTGTTGCGA (site CCGCCTCCTTC) | 0.616
CCGCCTCCTTGGGTTCTAACCTGTTGCGA (site CCGCGTCCTTA) | 0.0484
CCGCGCCCTTGGGTTCTAACCTGTTGCAT (site ACGCGCCCTGT) | 0.0166
CCGCGCCCTTGGGTTCTAACCTGTTGCAT (site CCGCGCCCTAT) | 0.504
CCGCGCTCTTGGGTTCTAACCTGTTGCCT (site CCGCGCACTAG) | 0.106
CCGCGCTCTTGGGTTCTAACCTGTTGCCT (site CCGCGCTCTAG) | 0.641
CCGCGCTCTTGGGTTCTAACCTGTTGCTG (site ACGAGCTCTCA) | 0
CCGCGCTCTTGGGTTCTAACCTGTTGCTG (site CCGCGCTCTCA) | 0.379
CCGCGGCCTTGGGTTCTAACCTGTTGCCT (site ACGCGGCCTAG) | 0.0555
CCGCGGCCTTGGGTTCTAACCTGTTGCCT (site CCGCGGCCTAG) | 0.459
CCGCGGCCTTGGGTTCTAACCTGTTGCCT (site GCGCGGCCTAG) | 0.0271
CCGCGGCCTTGGGTTCTAACCTGTTGCCT (site TCGCGGCCTAG) | 0.0221
CCGCTACCTTGGGTTCTAACCTGTTGCCT (site CAGCTACCTAG) | 0.109
CCGCTACCTTGGGTTCTAACCTGTTGCCT (site CCGCTACCTAG) | 0.956
CCGCTACCTTGGGTTCTAACCTGTTGCCT (site CGGCTACCTAG) | 0.103
CCGCTACCTTGGGTTCTAACCTGTTGCCT (site CTGCTACCTAG) | 0.19
CCGCTGTCTTGGGTTCTAACCTGTTGCCT (site CCGCTGTCTAG) | 0.394
CCGCTGTCTTGGGTTCTAACCTGTTGCCT (site CCTCTGGCTAG) | 0.167
CCGGACCCTTGGGTTCTAACCTGTTGCTG (site CCGGACCCTCA) | 2.49
CCGGACCCTTGGGTTCTAACCTGTTGCTG (site CCGTGCCCTCA) | 0.336

Sequence | recombinant barcode read abundance (log10)
CCGGATGCTTGGGTTCTAACCTGTTGCCT (site CCGAATGCTAG) | 0.272
CCGGATGCTTGGGTTCTAACCTGTTGCCT (site CCGCATGCTAG) | 0.117
CCGGATGCTTGGGTTCTAACCTGTTGCCT (site CCGGATGCTAG) | 0.775
CCGGATGCTTGGGTTCTAACCTGTTGCCT (site CCGTATGCTAG) | 0.0746
CCGGATTCTTGGGTTCTAACCTGTTGCCT (site CCGGATTCTAG) | 1.69
CCGGATTCTTGGGTTCTAACCTGTTGCCT (site CCGGTTGCTAG) | 0.369
CCGGTAACTTGGGTTCTAACCTGTTGCCT (site CCGGTAACTAG) | 0.45
CCGGTAACTTGGGTTCTAACCTGTTGCCT (site CCTGTAGCTAG) | 0.142
CCGGTAGCTTGGGTTCTAACCTGTTGCCA (site CCGGTAGCTTG) | 0.443
CCGGTAGCTTGGGTTCTAACCTGTTGCCA (site GCAGTAGCTTG) | 0.556
CCGGTATCTTGGGTTCTAACCTGTTGCCT (site CCGATATCTAG) | 0.0308
CCGGTATCTTGGGTTCTAACCTGTTGCCT (site CCGCTATCTAG) | 0.688
CCGGTATCTTGGGTTCTAACCTGTTGCCT (site CCGGTATCTAG) | 0.197
CCGGTATCTTGGGTTCTAACCTGTTGCCT (site CCGTTATCTAG) | 0.0727
CCGGTGCCTTGGGTTCTAACCTGTTGCCT (site CAGGTGCCTAG) | 0.0703
CCGGTGCCTTGGGTTCTAACCTGTTGCCT (site CCGGTGCCTAG) | 2.29
CCGGTGCCTTGGGTTCTAACCTGTTGCCT (site CGGGTGCCTAG) | 1.03
CCGGTGCCTTGGGTTCTAACCTGTTGCCT (site CTGGTGCCTAG) | 0.21
CCGTAAGCTTGGGTTCTAACCTGTTGCCT (site CCGTAAACTAG) | 0.139
CCGTAAGCTTGGGTTCTAACCTGTTGCCT (site CCGTAACCTAG) | 0.0711
CCGTAAGCTTGGGTTCTAACCTGTTGCCT (site CCGTAAGCTAG) | 0.105
CCGTAAGCTTGGGTTCTAACCTGTTGCCT (site CCGTAATCTAG) | 0.0655

Sequence | recombinant barcode read abundance (log10)
CCGTACTCTTGGGTTCTAACCTGTTGCCT (site CCGTACTCTAG) | 1.22
CCGTACTCTTGGGTTCTAACCTGTTGCCT (site CCGTAGTCTAG) | 0.0897
CCGTCTACTTGGGTTCTAACCTGTTGCCT (site CAGTCTACTAG) | 0.0408
CCGTCTACTTGGGTTCTAACCTGTTGCCT (site CCGTCTACTAG) | 0.0187
CCGTCTACTTGGGTTCTAACCTGTTGCCT (site CGGTCTACTAG) | 0.0454
CCGTCTACTTGGGTTCTAACCTGTTGCCT (site CTGTCTACTAG) | 0.082
CCGTCTACTTGGGTTCTAACCTGTTGCTA (site CCGTCTACTAA) | 0.02
CCGTCTACTTGGGTTCTAACCTGTTGCTA (site CCGTCTACTCA) | 0.161
CCGTCTACTTGGGTTCTAACCTGTTGCTA (site CCGTCTACTGA) | 0.125
CCGTCTACTTGGGTTCTAACCTGTTGCTA (site CCGTCTACTTA) | 0.259
CCGTGCCCTTGGGTTCTAACCTGTTGCGT (site CCGTGCCCTAC) | 1.92
CCGTGCCCTTGGGTTCTAACCTGTTGCGT (site TCGTGCCCTAC) | 0.0224
CCGTGCCCTTGGGTTCTAACCTGTTGCTG (site CCGGACCCTCA) | 0.111
CCGTGCCCTTGGGTTCTAACCTGTTGCTG (site CCGTGCCCTCA) | 1.62
CCTAAAACTTGGGTTCTAACCTGTTGCCT (site CCTAAAACTAG) | 0.0998
CCTAAAACTTGGGTTCTAACCTGTTGCCT (site GAACTCTCTTA) | 0.0257
CCTAACCCTTGGGTTCTAACCTGTTGCGT (site CCTAAACCTAC) | 0.39
CCTAACCCTTGGGTTCTAACCTGTTGCGT (site CCTAACCCTAC) | 1.85
CCTAACCCTTGGGTTCTAACCTGTTGCGT (site CCTAAGCCTAC) | 0.0306
CCTAACCCTTGGGTTCTAACCTGTTGCGT (site CCTAATCCTAC) | 0.381
CCTAAGACTTGGGTTCTAACCTGTTGCCA (site CCTAAGACTAG) | 0.08
CCTAAGACTTGGGTTCTAACCTGTTGCCA (site CCTAAGACTCG) | 0.133

Sequence | recombinant barcode read abundance (log10)
CCTAAGACTTGGGTTCTAACCTGTTGCCA (site CCTAAGACTGG) | 0.0159
CCTAAGACTTGGGTTCTAACCTGTTGCCA (site CCTAAGACTTG) | 0
CCTAAGACTTGGGTTCTAACCTGTTGCCT (site CCTAAGACTAG) | 0.595
CCTAAGACTTGGGTTCTAACCTGTTGCCT (site CCTAAGACTCG) | 0.0786
CCTAAGACTTGGGTTCTAACCTGTTGCCT (site CCTAAGACTGG) | 0.0702
CCTAAGACTTGGGTTCTAACCTGTTGCCT (site CCTAAGACTTG) | 0.0542
CCTAAGCCTTGGGTTCTAACCTGTTGCAT (site CCTAAGCCTAT) | 0.859
CCTAAGCCTTGGGTTCTAACCTGTTGCAT (site GGACGCACTCC) | 0.111
CCTAATACTTGGGTTCTAACCTGTTGCTT (site ACTAATCCTAA) | 0.107
CCTAATACTTGGGTTCTAACCTGTTGCTT (site CCTAATACTAA) | 0.155
CCTACATCTTGGGTTCTAACCTGTTGCAT (site CCTACATCTAT) | 0.252
CCTACATCTTGGGTTCTAACCTGTTGCAT (site CCTACATCTTA) | 0.0552
CCTACATCTTGGGTTCTAACCTGTTGCCT (site CCTACAACTAG) | 0.124
CCTACATCTTGGGTTCTAACCTGTTGCCT (site CCTACACCTAG) | 0.115
CCTACATCTTGGGTTCTAACCTGTTGCCT (site CCTACAGCTAG) | 0.0484
CCTACATCTTGGGTTCTAACCTGTTGCCT (site CCTACATCTAG) | 0.123
CCTACTCCTTGGGTTCTAACCTGTTGCAG (site CCTACTACTCG) | 0.0435
CCTACTCCTTGGGTTCTAACCTGTTGCAG (site CCTACTCCTCT) | 0.0147
CCTATCCCTTGGGTTCTAACCTGTTGCCT (site CCTATCCCTAG) | 1.32
CCTATCCCTTGGGTTCTAACCTGTTGCCT (site CCTTTCACTAG) | 0.311
